Measurements as given in PubChem BioAssay AID192 (DTP/NCI, 2004).
“And” between values parts separate entries of the source, which are not always exact repeats. Equal values may be shown once. Inconclusive results and toxic doses are left out.

Test system: BDF1 mice, B16 melanoma ip, median survival T/C
Assay: NCI In Vivo Anticancer Drug Screen. Data for tumor model B16 Melanoma (intraperitoneal) in B6D2F1 (BDF1) mice
Conditions: endpoint: median survival time, higher = longer survival
Procedure, shortened: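 Antitumor activity is assessed in mice bearing a transplanted tumor, with survival or tumor size compared against vehicle-dosed controls and expressed as T/C.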

[1] = dose: 12.5 mg/kg/injection, schedule: Q01DX009 (ip), vehicle: saline with Tween-80
[2] = dose: 25.0 mg/kg/injection, schedule: Q01DX009 (ip), vehicle: saline with Tween-80
[3] = dose: 50.0 mg/kg/injection, schedule: Q01DX009 (ip), vehicle: saline with Tween-80
[4] = dose: 25.0 mg/kg/injection, schedule: Q01DX009 (ip), vehicle: saline
[5] = dose: 50.0 mg/kg/injection, schedule: Q01DX009 (ip), vehicle: saline
[6] = dose: 100.0 mg/kg/injection, schedule: Q01DX009 (ip), vehicle: saline
[7] = dose: 100.0 mg/kg/injection, schedule: Q01DX009 (ip), vehicle: saline with Tween-80
[8] = dose: 200.0 mg/kg/injection, schedule: Q01DX009 (ip), vehicle: saline with Tween-80
[9] = dose: 1.56 mg/kg/injection, schedule: Q01DX009 (ip), vehicle: Klucel (hydroxypropylcellulose) (HPC)
[10] = dose: 1.56 mg/kg/injection, schedule: Q01DX009 (ip), vehicle: water
[11] = dose: 3.13 mg/kg/injection, schedule: Q01DX009 (ip), vehicle: Klucel (hydroxypropylcellulose) (HPC)
[12] = dose: 3.13 mg/kg/injection, schedule: Q01DX009 (ip), vehicle: water
[13] = dose: 6.25 mg/kg/injection, schedule: Q01DX009 (ip), vehicle: Klucel (hydroxypropylcellulose) (HPC)
[14] = dose: 6.25 mg/kg/injection, schedule: Q01DX009 (ip), vehicle: water
[15] = dose: 50.0 mg/kg/injection, schedule: Q01DX009 (ip), vehicle: Klucel (hydroxypropylcellulose) (HPC)
[16] = dose: 400.0 mg/kg/injection, schedule: Q01DX009 (ip), vehicle: Klucel (hydroxypropylcellulose) (HPC)
[17] = dose: 100.0 mg/kg/injection, schedule: Q01DX009 (ip), vehicle: Klucel (hydroxypropylcellulose) (HPC)
[18] = dose: 12.5 mg/kg/injection, schedule: Q01DX009 (ip), vehicle: Klucel (hydroxypropylcellulose) (HPC)
[19] = dose: 25.0 mg/kg/injection, schedule: Q01DX009 (ip), vehicle: Klucel (hydroxypropylcellulose) (HPC)
[20] = dose: 6.25 mg/kg/injection, schedule: Q01DX009 (ip), vehicle: saline with Tween-80
[21] = dose: 200.0 mg/kg/injection, schedule: Q01DX009 (ip), vehicle: Klucel (hydroxypropylcellulose) (HPC)

SMILES: C[C@]12CC[C@H](O)C[C@@]1(O)CC[C@@H]1[C@@H]2CC[C@]2(C)[C@@H](c3ccc(=O)oc3)CC[C@]12O
- T/C (dose: 1.25 mg/kg/injection, schedule: Q01DX009 (ip), vehicle: Klucel (hydroxypropylcellulose) (HPC)): 94 % of control
- T/C (dose: 2.5 mg/kg/injection, schedule: Q01DX009 (ip), vehicle: Klucel (hydroxypropylcellulose) (HPC)): 92 % of control
- T/C (dose: 5.0 mg/kg/injection, schedule: Q01DX009 (ip), vehicle: Klucel (hydroxypropylcellulose) (HPC)): 92 % of control
- T/C (dose: 10.0 mg/kg/injection, schedule: Q01DX009 (ip), vehicle: Klucel (hydroxypropylcellulose) (HPC)): 94 % of control
- T/C [1]: 96 % of control
- T/C (dose: 20.0 mg/kg/injection, schedule: Q01DX009 (ip), vehicle: Klucel (hydroxypropylcellulose) (HPC)): 94 % of control
- T/C [2]: 94 % of control
- T/C [3]: 92 % of control

SMILES: NC(=O)CC1=NCCc2ccccc21
- T/C [4]: 105 % of control
- T/C [5]: 97 % of control
- T/C [6]: 91 % of control and 105 % of control

SMILES: CN(C)CCCc1c2ccccc2nc2ccc(Cl)cc12
- T/C (dose: 12.5 mg/kg/injection, schedule: Q04DX003 (ip), vehicle: saline): 117 % of control
- T/C (dose: 25.0 mg/kg/injection, schedule: Q04DX003 (ip), vehicle: saline): 114 % of control
- T/C (dose: 50.0 mg/kg/injection, schedule: Q04DX003 (ip), vehicle: saline): 108 % of control

SMILES: O=CNC(Cc1ccccc1)C(=O)O (stereo not drawn)
- T/C [3]: 106 % of control
- T/C [7]: 92 % of control
- T/C [8]: 89 % of control

SMILES: CCCCCCCCCCCCCCCC(=O)N(CCCN(CC)CC)C(C)CCCN(CC)CC (stereo not drawn)
- T/C (dose: 0.78 mg/kg/injection, schedule: Q01DX009 (ip), vehicle: water): 103 % of control
- T/C [9]: 110 % of control
- T/C [10]: 104 % of control
- T/C [11]: 102 % of control
- T/C [12]: 104 % of control
- T/C [13]: 86 % of control and 97 % of control
- T/C [14]: 90 % of control

SMILES: CN(C)CCCC1c2ccccc2Oc2ccc(C(F)(F)F)cc21 (stereo not drawn)
- T/C (dose: 3.12 mg/kg/injection, schedule: Q01DX009 (ip), vehicle: saline): 86 % of control
- T/C (dose: 6.25 mg/kg/injection, schedule: Q01DX009 (ip), vehicle: saline): 88 % of control
- T/C (dose: 12.5 mg/kg/injection, schedule: Q01DX009 (ip), vehicle: saline): 100 % of control
- T/C [4]: 97 % of control

SMILES: COC(=O)c1cc(C)ccc1O
- T/C [3]: 108 % of control
- T/C [7]: 97 % of control
- T/C [8]: 105 % of control

SMILES: CCc1ccccc1NC(=O)Nc1ccc(Cl)cc1
- T/C (dose: 100.0 mg/kg/injection, schedule: Q01DX009 (ip), vehicle: gum acacia): 101 % of control
- T/C (dose: 200.0 mg/kg/injection, schedule: Q01DX009 (ip), vehicle: gum acacia): 97 % of control
- T/C (dose: 400.0 mg/kg/injection, schedule: Q01DX009 (ip), vehicle: gum acacia): 93 % of control

SMILES: Cc1ccc(N=Nc2c(O)ccc3ccccc23)c(C)c1
- T/C [15]: 92 % of control
- T/C [16]: 150 % of control

SMILES: O=C(NC(Cc1ccccc1)C(=O)O)OCC1c2ccccc2-c2ccccc21 (stereo not drawn)
- T/C [15]: 106 % of control
- T/C [17]: 114 % of control

SMILES: CC(=O)O[C@H]1CC[C@H]2[C@@H]3CC[C@H]4CC=C(C#N)C[C@]4(C)[C@H]3CC[C@]12C
- T/C [18]: 86 % of control
- T/C [19]: 94 % of control
- T/C [15]: 88 % of control

SMILES: CCOC(=N)c1cn(C2OC(CO)C(O)C2O)c2ncnc(N)c12 (stereo not drawn)
- T/C (dose: 0.25 mg/kg/injection, schedule: Q01DX009 (ip), vehicle: saline): 100 % of control
- T/C (dose: 0.5 mg/kg/injection, schedule: Q01DX009 (ip), vehicle: saline): 105 % of control

SMILES: OCN(CO)c1nc(N(CO)CO)nc(N(CO)CO)n1
- T/C [20]: 97 % of control
- T/C [1]: 100 % of control
- T/C [2]: 94 % of control
- T/C [3]: 92 % of control
- T/C [8]: 90 % of control

SMILES: ClCCOC1COC(OCCCl)CO1 (stereo not drawn)
- T/C (dose: 3.12 mg/kg/injection, schedule: Q01DX009 (ip), vehicle: Klucel (hydroxypropylcellulose) (HPC)): 103 % of control
- T/C [13]: 98 % of control
- T/C [18]: 93 % of control
- T/C [19]: 103 % of control
- T/C [15]: 96 % of control
- T/C [17]: 98 % of control
- T/C [21]: 100 % of control

SMILES: O=C(O)c1cc2ccccc2cn1
- T/C [5]: 102 % of control
- T/C [6]: 100 % of control

SMILES: Cc1cccc(C)c1NC(=O)c1cccc(C(=O)Nc2c(C)cccc2C)c1
- T/C [17]: 100 % of control
- T/C [21]: 94 % of control
- T/C [16]: 91 % of control

SMILES: Nc1ncnc2c1ncn2Cc1ccccc1
- T/C [15]: 89 % of control and 90 % of control
- T/C [17]: 90 % of control and 100 % of control
- T/C [21]: 86 % of control

SMILES: COC(=O)C1C(O)C(C)C(O)C(C)/C=C\C=C(C)C(=O)Nc2c(C)c(OC(C)=O)c3c(c2O)C(=O)C(C)=C2OCOC(=C23)C(C)=CC(C)(O)C(O)C(C)C1O (stereo not drawn)
- T/C [18]: 112 % of control
- T/C [19]: 100 % of control
- T/C (dose: 25.0 mg/kg/injection, schedule: Q01DX009 (ip), vehicle: carboxymethylcellulose (CMC)): 107 % of control
- T/C [15]: 102 % of control
- T/C (dose: 50.0 mg/kg/injection, schedule: Q01DX009 (ip), vehicle: carboxymethylcellulose (CMC)): 103 % of control
- T/C (dose: 100.0 mg/kg/injection, schedule: Q01DX009 (ip), vehicle: carboxymethylcellulose (CMC)): 102 % of control
- T/C (dose: 200.0 mg/kg/injection, schedule: Q01DX009 (ip), vehicle: carboxymethylcellulose (CMC)): 96 % of control

SMILES: COc1ccc(CCN2CSC(=S)N(CCc3ccc(OC)c(OC)c3)C2)cc1OC
- T/C [17]: 106 % of control
- T/C [21]: 95 % of control
- T/C [16]: 95 % of control

SMILES: CSC(=C[N+](=O)[O-])SC
- T/C [10]: 108 % of control
- T/C [12]: 91 % of control
- T/C [14]: 95 % of control
- T/C (dose: 12.5 mg/kg/injection, schedule: Q01DX009 (ip), vehicle: water): 99 % of control
- T/C (dose: 25.0 mg/kg/injection, schedule: Q01DX009 (ip), vehicle: water): 89 % of control

SMILES: N#Cc1ccc(Br)cc1[N+](=O)[O-]
- T/C (dose: 0.39 mg/kg/injection, schedule: Q01DX009 (ip), vehicle: Klucel (hydroxypropylcellulose) (HPC)): 93 % of control
- T/C (dose: 0.78 mg/kg/injection, schedule: Q01DX009 (ip), vehicle: Klucel (hydroxypropylcellulose) (HPC)): 93 % of control
- T/C [9]: 106 % of control

SMILES: Cc1cnc(/C=N\NC(N)=S)c2cccc(N)c12
- T/C (dose: 3.12 mg/kg/injection, schedule: Q01DX009 (ip), vehicle: saline with Tween-80): 100 % of control
- T/C [11]: 102 % of control
- T/C (dose: 3.13 mg/kg/injection, schedule: Q01DX009 (ip), vehicle: saline with Tween-80): 114 % of control
- T/C [13]: 114 % of control
- T/C [20]: 103 % of control and 124 % of control
- T/C [18]: 115 % of control

SMILES: CNC(=O)OCc1c(COC(=O)NC)c(-c2ccccc2)n(C)c1-c1ccccc1
- T/C (dose: 3.12 mg/kg/injection, schedule: Q01DX009 (ip), vehicle: distilled water + Tween-80): 161 % of control
- T/C (dose: 6.25 mg/kg/injection, schedule: Q01DX009 (ip), vehicle: distilled water + Tween-80): 159 % of control
- T/C (dose: 12.5 mg/kg/injection, schedule: Q01DX009 (ip), vehicle: distilled water + Tween-80): 166 % of control
- T/C (dose: 25.0 mg/kg/injection, schedule: Q01DX009 (ip), vehicle: distilled water + Tween-80): 206 % of control

SMILES: COc1ccc2c(oc(=O)c3c(Cl)nc(C)c(C)c32)c1OC
- T/C [19]: 105 % of control
- T/C [15]: 98 % of control
- T/C [17]: 97 % of control
- T/C [21]: 94 % of control

SMILES: COC(CCC#N)c1ccc(Cl)cc1 (stereo not drawn)
- T/C [7]: 101 % of control
- T/C [8]: 96 % of control
- T/C (dose: 400.0 mg/kg/injection, schedule: Q01DX009 (ip), vehicle: saline with Tween-80): 98 % of control

SMILES: CCOC(=O)CN1CCC2CC1c1c([nH]c3ccccc13)C2c1cc2c(cc1OC)N(C)C1C(O)(C(=O)OC)C(OC(C)=O)C3(CC)C=CCN4CCC21C43 (stereo not drawn)
- T/C (dose: 0.06 mg/kg/injection, schedule: Q01DX009 (ip), vehicle: other): 96 % of control
- T/C (dose: 0.13 mg/kg/injection, schedule: Q01DX009 (ip), vehicle: other): 108 % of control
- T/C (dose: 0.5 mg/kg/injection, schedule: Q01DX009 (ip), vehicle: other): 96 % of control
- T/C (dose: 1.0 mg/kg/injection, schedule: Q01DX009 (ip), vehicle: other): 104 % of control
- T/C (dose: 2.0 mg/kg/injection, schedule: Q01DX009 (ip), vehicle: other): 117 % of control
